Data set [1] concerns HSV-1. The data set is described as follows: Anti-HSV-1 replication assay (virus yield by plaque assay on Vero cells). It counts as cell-based, herpes simplex virus 1 (HSV-1). Particulars: for HSV-1 inhibition category: semi-quantitative replication inhibition assay. As for the experimental part: Vero cells were maintained in Dulbecco's modified Eagle's medium (DMEM) containing 3% newborn calf serum, 3% bovine growth serum, 2 mM L-glutamine and 100 IU/mL penicillin and 0.1 mg/mL streptomycin (P/S). HSV-1 #6 and HSV-2 #1 are de-identified clinical isolates from the Saint Louis University Hospital. Stocks were prepared after a single passage in cell culture and were titered by standard plaque assay (Knipe and Spang, 1982). Wild-type HSV-2 used in FIG. 3 was laboratory strain 333. […] Virus stocks were grown and titered on Vero cells (Morrison and Knipe, 1996).
Compounds to be screened were diluted in PBS supplemented to contain 2% newborn calf serum and 1% glutamine, and added in 100 μL volume to confluent cell monolayers in 24-well cluster plates. Immediately thereafter HSV-1 and HSV-2, diluted in the supplemented PBS medium, were added to the wells in 50 μl volume such that the final concentration of compound was 50 μM, 5 μM and 1 μM and the multiplicity of infection was 0.1. The plates were incubated at 37° C. for 1 hour and then virus-containing inoculum was removed and the wells were washed once in PBS. Compound, diluted to 50 μM, 5 μM and 1 μM in DMEM supplemented to contain 2% newborn calf serum and 1% each penicillin/streptomycin, was added at 0.5 mL/well. Plates were incubated at 37° C. an additional 23 hours, and then the plates were visually inspected through a phase contrast microscope for cytopathic effect, and for toxic effect. The entire contents of each well were collected by scraping. Samples were frozen at −80° C., and then subsequently thawed, sonicated, and infectious virus titer was determined by standard plaque assay on Vero cell monolayers. Because the compounds were dissolved at 10 mM in 100% DMSO, equivalent dilutions of DMSO were added to additional wells as a control for effects of the diluent. Each experiment was repeated once. EC50 values were determined as above except that serial dilutions of the compound to be tested were prepared starting at 50 μM. The inhibitory values were calculated by non-linear curve-fitting in GraphPad Prism.

A short description of data set [2]: in vitro. It counts as cell-based. The settings on record: African green monkey. As for the experimental part: Qualitative assessments of cytotoxicity were done visually by inspecting the cells in the primary screening assays. For the quantitative assays, cells were plated in 96-well plates at 1.0×10^4 per well. The next day the compounds were added at 0.78 to 100 μM in a final concentration of 1% (v/v) DMSO, and the cells were incubated for 24 hours under conditions identical to those employed for the viral replication inhibition assays. Mitochondrial toxicity was measured by incubating the cells with 0.25 mg/mL thiazolyl blue tetrazolium bromide (MTT, SigmaAldrich Chemical Co.), the cultures were incubated for 60 min, metabolites were solubilized in acidic isopropanol, and absorbance was read at 570 nm. CC50 values were calculated by non-linear curve fitting using GraphPad Prism.
A quantitative toxicity measurement was conducted. Toxicity was assessed by measuring release of intracellular proteases into the culture medium due to cellular lysis. Cells were plated in 96-well plates at 1.0×10^4 per well. The next day compound was added in concentrations ranging from 0.78 to 100 μM in a final concentration of 1% (v/v) DMSO. The cells were incubated for 24 hours under conditions identical to those employed for the viral replication inhibition assays, and then […] according to the manufacturer's instructions. […]

Each structure is given as a SMILES string. Values joined by “and” are separate entries in the source; they are usually repeats but may differ in a detail not shown here. Equal entries are not always repeated.

On to `Cc1cc(CC(C)CC(C)(C)C)n(O)c(=O)c1` (centres unmarked) [#191, Piroctone olamine], for which the HSV-1 inhibition category result in data set [1] (1 μM) is reported as “intermediate (1 to 3 log10 suppression, which equals 10- to 1,000-fold reduction)”; in data set [1] (5 μM), “strong (3 to 6 log10 suppression, or 1,000- to 1,000,000-fold reduction)”; in data set [1] (50 μM), “strong (3 to 6 log10 suppression, or 1,000- to 1,000,000-fold reduction)”. Moreover, in data set [1] (1 μM, Vero cells, moi 0.1, 24 h, relative to DMSO control), the “HSV-1 Log10 suppression 1 μM” value was 2.71 log10. In addition, the “HSV-1 replication inhibition, fold” value in data set [1] (5 μM) is recorded as 4,074 fold. Moreover, the “HSV-1 Log10 suppression 5 μM” value in data set [1] (5 μM, Vero cells, moi 0.1, 24 h, relative to DMSO control) was 3.61 log10 and 3.53 log10. The “HSV-1 Log10 suppression 50 μM” value in data set [1] (50 μM, Vero cells, moi 0.1, 24 h, relative to DMSO control) is 3.85 log10. This compound displayed a CC50 at 24 h in data set [2] of more than 100 µM.

By CC50 is commonly meant the concentration giving 50% cytotoxicity.

The values above are taken from US11191754B2, “Inhibitors of nucleotidyl transferases and uses in herpes and hepatitis viral infections therefor” (Saint Louis University, priority 2015, dated 2021).
